Test results published in patent US7101902B2, “2-guanidinylimidazolidinedione compounds and methods of making and using thereof” (The United States of America as represented by the …, priority 2003, dated 2006).
Where “and” joins values, the source holds several entries; their conditions need not be identical. Equal entries are not always repeated. Entries after “also recorded” stand apart in the source; their conditions may differ.

What was measured:
Plasmodium yoelii (17×) = test: Sporozoite induced test in mouse (causal prophylactic activity); type: in vivo; details: sporozoite challenged CD-1 mice; single dose 4 hours before inoculation; oral administration
Method: The causal prophylactic antimalarial activity of the new carbamate derivatives were assessed in a sporozoites challenged mouse model according to the following protocol and the results are shown in Table 4 and Table 5.
Each compound was ground with a mortar and pestle and suspended in 0.5% hydroxyethylcellulose and 0.1% Tween 80 for compounds to be administered PO and those given SC were suspended in peanut oil. Each compound is prepared at 3 different dose levels.
Compounds were administered either PO or SC to mice once 4 hours before inoculation of sporozoites.
Four-week-old male CD-1 mice, purchased from Charles River and weighing about 16 to about 17 grams were placed 5 per cage and allowed to acclimate for 4 days before being treated and then inoculated with sporozoites. They were fed food and water ad-lib and maintained at 76° F. with 12 hour light and 12 hour darkness. The cages and water bottles were changed biweekly. The mice are weighed on Days 0, 3 and 6 then biweekly when blood films were taken.
Plasmodium yoelii (17×) was used to infect mice that will be used to infect the mosquitoes.
Mice were given a single dose of test compound 4 hours before being inoculated intraperitoneally with 2.5×10^5 sporozoites of Plasmodium yoelii on Day 0. Whole body weights were taken on Day 0 and Day 6 then twice a week for 31 days. A blood film was taken on Day 5 and then twice a week for 31 days. Mice loosing greater than about 20% of their body weight were sacrificed. All mice alive on Day 31 with no parasites in a blood film were considered cured. Donor mice used to infect the mosquitoes were infected with 2.5×10^4 parasitized erythrocytes. The mosquitoes were allowed to feed on these malaria-infected mice on Day 4 of their infection when the parasitemia was low.
A compound was considered active against either the sporozoite or the EE stage if no parasites were found in the blood films taken on Day 5 or on subsequent blood films taken weekly for 31 days.
Mice alive on Day 31 with no parasites found in any blood films were considered cured.

P. cynomolgi sporozoites [1] = test: Oral causal prophylactic assay in Rhesus monkey (compound 3 IM; 4b and 3c PO); type: in vivo, Plasmodium cynomolgi; details: per monkey
Method: To test the causal prophylactic intramuscular potency of the purified isomer of compound 3 and oral potency of two carbamate derivatives of 2-guanidinylimidazolidinedione (4b and 3c) the following assay was conducted.
Fourteen rhesus monkeys were issued.
A donor monkey was inoculated intravenously with 1.3 ml, freshly-thawed frozen infected red blood cell (DA310). When the monkey developed gametocytemia, mosquito feedings were conducted on days 15 and 16 after inoculation. The donor monkey was treated with intramuscular chloroquine hydrochloride (CQ) 10 mg/kg, once a day after the second mosquito feeding and continued for 6 days.
On day 0 of the beginning of the assay, each of the 14 monkeys was inoculated intravenously with 1-ml inoculum of suspension containing about 1.0×10^6 P. cynomolgi sporozoites harvested from Anopheles dirus mosquitoes' salivary glands previously fed on the donor monkey.
All monkeys received treatment on days −1, 0 and 1. The control monkeys (Group 1) received HECT orally and the experimental animals received testing compound intramuscularly (Groups 2 and 3) or orally (Groups 4 to 7).

[2] = Solubility and characteristics of the compounds in the dosing vehicle; type: physicochemical
P. cynomolgi sporozoites [3] = test: Causal prophylactic assay for intramuscular administration in Rhesus monkey; type: in vivo, Plasmodium cynomolgi
Method: The causal prophylactic antimalarial activity of the two 2-guanidinylimidazolidinedione carbamates 3c and 4b were assessed against Plasmodium cynomolgi in Rhesus monkey. Two monkeys were used in each test group. The average control animal developed parasitemia is about 10 days after inoculation of about 1×10^6 P. cynomolgi sporozoites harvested from Anopheles dirus.
In order to study the causal prophylactic activity of the 2-guanidinylimidazolidinedione compounds of the present invention, the following assay was conducted. Twelve rhesus monkeys were issued. The monkeys were randomized to 2 control animals and 5 groups of 2 experimental animals each.
A donor monkey was inoculated intravenously with 1.3 ml, freshly-thawed frozen infected red blood cells (DA310). The experiments were conducted in US Army oversea laboratory, AFRIMS, Bankoku, Thailand. When the donor monkey developed gametocytemia, mosquito feedings were conducted on days 13 and 14 after inoculation. The donor monkey was treated with intramuscular chloroquine hydrochloride (CQ) 10 mg/kg, once a day after the second mosquito feeding and continued for 7 days.
On day 0 (beginning of assay), each of the 12 monkeys was inoculated intravenously with 1-ml inoculum of suspension containing about 1.0×10^6 P. cynomolgi sporozoites harvested from Anopheles dirus mosquitoes' salivary glands previously fed on the donor monkey. See Corcoran, K D, et al. (1993) Am. J. Trop. Med. Hyg. 49:473–477, and Shanks, G D, et al. (2001) Clinical Infectious Diseases 33:1968–1974, which are herein incorporated by reference.
All monkeys received treatment on days −1, 0 and 1. The control monkeys received dimethylsulfoxide (DMSO) and the experimental animals received testing compound intramusculary.

CCOC(=O)N=C(N=C1NC(=O)C(=O)N1C(C)C)Nc1ccc(Cl)c(Cl)c1 [Compound 3a, N-(3,4-dichlorophenyl)-N′-ethoxycarbonyl-N″-(1-isopropyl-4,5-dioxo-imidazolidin-2-ylidene)-guanidine]
Minimum Protective Dose Against P. yoelii (Plasmodium yoelii (17×)): 2.5 mg/kg
melting point: 257 °C

CC(C)COC(=O)N=C(N=C1NC(=O)C(=O)N1C(C)C)Nc1ccc(Cl)c(Cl)c1 [Compound 3b, N-(3,4-dichlorophenyl)-N′-(isobutoxycarbonyl)-N″-(1-isopropyl-4,5-dioxo-imidazolidin-2-ylidene)-guanidine]
Minimum Protective Dose Against P. yoelii (Plasmodium yoelii (17×)): >40 mg/kg

CC(C)N1C(=O)C(=O)NC1=NC(=NC(=O)OC(C)(C)C)Nc1ccc(Cl)c(Cl)c1 [Compound 3c, N-(3,4-dichlorophenyl)-N′-(1-isopropyl-4,5-dioxoimidazolidin-2-ylidene)-N″-(tert-butoxycarbonyl)-guanidine]
Minimum Protective Dose Against P. yoelii (Plasmodium yoelii (17×)): 40 mg/kg
Day of Parasitemia (P. cynomolgi sporozoites [1]; 10 mg/kg PO, 10 mg/kg): 9 days and 10 days
Result (delay the parasitemia) (P. cynomolgi sporozoites [1]; 10 mg/kg PO, 10 mg/kg): 2 days and 1 days
Day of Parasitemia (P. cynomolgi sporozoites [1]; 30 mg/kg PO, 30 mg/kg): 10 days and 11 days
Result (delay the parasitemia) (P. cynomolgi sporozoites [1]; 30 mg/kg PO, 30 mg/kg): 3 days and 2 days
Sediment ([2]; vehicle DMSO, dosage 10 mg/kg): None
Solubility ([2]; vehicle DMSO, dosage 10 mg/kg): Good
Sediment ([2]; vehicle DMSO, dosage 30 mg/kg): None
Solubility ([2]; vehicle DMSO, dosage 30 mg/kg): Good
Solubility ([2]; vehicle HECT, dosage 10 mg/kg): Moderate
Supernatant ([2]; vehicle HECT, dosage 10 mg/kg): Turbid
Solubility ([2]; vehicle HECT, dosage 30 mg/kg): Moderate
Supernatant ([2]; vehicle HECT, dosage 30 mg/kg): Turbid

CCCCCCOC(=O)N=C(N=C1NC(=O)C(=O)N1C(C)C)Nc1ccc(Cl)c(Cl)c1 [Compound 3e, N-(3,4-dichlorophenyl)-N′-(1-hexyloxycarbonyl)-N″-(1-isopropyl-4,5-dioxo-imidazolidin-2-ylidene)-guanidine]
Minimum Protective Dose Against P. yoelii (Plasmodium yoelii (17×)): 40 mg/kg

C=CCCOC(=O)N=C(N=C1NC(=O)C(=O)N1C(C)C)Nc1ccc(Cl)c(Cl)c1 [Compound 3g, N-(3,4-dichlorophenyl)-N′-(3-butenyloxycarbonyl)-N″-(1-isopropyl-4,5-dioxoimidazolidin-2-ylidene)-guanidine]
Minimum Protective Dose Against P. yoelii (Plasmodium yoelii (17×)): 160 mg/kg

CC(C)N1C(=O)C(=O)NC1=NC(=NC(=O)OCCOCc1ccccc1)Nc1ccc(Cl)c(Cl)c1 [Compound 3h, N-(3,4-dichloro-phenyl)-N′-(2-benzyloxyethoxycarbonyl)-N″-(1-isopropyl-4,5-dioxo-imidazolidin-2-ylidene)-guanidine]
Minimum Protective Dose Against P. yoelii (Plasmodium yoelii (17×)): 160 mg/kg

CC(C)NC(=N)NC1=NC(=O)C(=O)N1c1ccc(Cl)c(Cl)c1 [Compound 4, N-[1-(3,4-dichlorophenyl)-4,5-dioxo-4,5-dihydro-1H-imidazol-2-yl]-N′-isopropylguanidine]
Minimum Protective Dose Against P. yoelii (Plasmodium yoelii (17×)): 5 mg/kg
melting point: 244 °C and 245 °C

CC(C)COC(=O)N=C(N=C1NC(=O)C(=O)N1c1ccc(Cl)c(Cl)c1)NC(C)C [Compound 4b, N-[1-(3,4-dichlorophenyl)-4,5-dioxo-imidazolidin-2-ylidene]-N′-isopropyl-N″-(isobutyloxycarbonyl)guanidine]
Minimum Protective Dose Against P. yoelii (Plasmodium yoelii (17×)): 2.5 mg/kg
Day of Parasitemia (P. cynomolgi sporozoites [3]; 10 mg/kg IM on days -1, 0 and 1, per monkey, 10 mg/kg): Parasitemia on day 47 and Parasite free on day 100 and 47 day and Remain parasite free
Result (causal prophylaxis = parasite free for 100 days after treatment) (P. cynomolgi sporozoites [3]; 10 mg/kg IM, 10 mg/kg): protected one monkey; also recorded: Causal prophylaxis; also recorded: Delay the parasitemia
Delay of parasitemia (P. cynomolgi sporozoites [3]; 10 mg/kg IM, the monkey not protected): 34 days
Day of Parasitemia (P. cynomolgi sporozoites [3]; 30 mg/kg IM on days -1, 0 and 1, per monkey, 30 mg/kg): stayed parasite free 100 days after treatment; also recorded: Parasite free on day 100; also recorded: Remain parasite free
Result (causal prophylaxis = parasite free for 100 days after treatment) (P. cynomolgi sporozoites [3]; 30 mg/kg IM, 30 mg/kg): protected; also recorded: Causal prophylaxis
Protective / prophylactic activity (in words) (P. cynomolgi sporozoites [3]; 10 and 30 mg/kg, intramuscular): partial to complete prophylactic activity; also recorded: protective activity
Day of Parasitemia (P. cynomolgi sporozoites [1]; 10 mg/kg PO): 8 days
Result (delay the parasitemia) (P. cynomolgi sporozoites [1]; 10 mg/kg PO, 10 mg/kg): not protected; also recorded: No activity
Day of Parasitemia (P. cynomolgi sporozoites [1]; 30 mg/kg PO): 8 days
Result (delay the parasitemia) (P. cynomolgi sporozoites [1]; 30 mg/kg PO, 30 mg/kg): not protected; also recorded: No activity
Sediment ([2]; vehicle DMSO, dosage 10 mg/kg): None
Solubility ([2]; vehicle DMSO, dosage 10 mg/kg): Good
Supernatant ([2]; vehicle DMSO, dosage 10 mg/kg): Clear
Supernatant ([2]; vehicle DMSO, dosage 30 mg/kg): Clear
Solubility ([2]; vehicle HECT, dosage 10 mg/kg): Moderate
Supernatant ([2]; vehicle HECT, dosage 10 mg/kg): Turbid
Solubility ([2]; vehicle HECT, dosage 30 mg/kg): Moderate
Supernatant ([2]; vehicle HECT, dosage 30 mg/kg): Turbid

CC(C)NC(=NC(=O)OC(C)(C)C)N=C1NC(=O)C(=O)N1c1ccc(Cl)c(Cl)c1 [Compound 4c, N-[1-(3,4-dichlorophenyl)-4,5-dioxo-imidazolidin-2-ylidene]-N′-isopropyl-N″-(tert-butoxycarbonyl)guanidine]
Minimum Protective Dose Against P. yoelii (Plasmodium yoelii (17×)): 1.25 mg/kg

CC(C)NC(=NC(=O)OCc1ccccc1)N=C1NC(=O)C(=O)N1c1ccc(Cl)c(Cl)c1 [Compound 4d, N-[1-(3,4-dichlorophenyl)-4,5-dioxo-imidazolidin-2-ylidene]-N′-isopropyl-N″-(benzyloxycarbonyl)guanidine]
Minimum Protective Dose Against P. yoelii (Plasmodium yoelii (17×)): 10 mg/kg
melting point: 211 °C

CCCCCCOC(=O)N=C(N=C1NC(=O)C(=O)N1c1ccc(Cl)c(Cl)c1)NC(C)C [Compound 4e, N-[1-(3,4-dichlorophenyl)-4,5-dioxo-imidazolidin-2-ylidene]-N′-isopropyl-N″-(1-hexyloxycarbonyl)guanidine]
Minimum Protective Dose Against P. yoelii (Plasmodium yoelii (17×)): 5 mg/kg

N=C(N=C1NC(=O)C(=O)N1c1ccc(Cl)c(Cl)c1)Nc1ccc(Cl)c(Cl)c1 [Compound 19, N-(3,4-dichlorophenyl)-N′-[1-(3,4-dichlorophenyl)-4,5-dioxo-imidazolidin-2-ylidene]-guanidine]
melting point: 220 °C

C[C@H]1[C@@H](O)O[C@@H]2O[C@@]3(C)CC[C@H]4[C@H](C)CC[C@@H]1[C@@]24OO3 [Dihyroartemisinin, reference compound]
Minimum Protective Dose Against P. yoelii (Plasmodium yoelii (17×)): 160 mg/kg

COc1cc(NC(C)CCCN)c2ncccc2c1 (centres unmarked) [Primaquine, reference compound]
Minimum Protective Dose Against P. yoelii (Plasmodium yoelii (17×)): 40 mg/kg

COc1cc(C)c2c(Oc3cccc(C(F)(F)F)c3)c(OC)cc(NC(C)CCCN)c2n1 (centres unmarked) [Tafenoguine, reference compound]
Minimum Protective Dose Against P. yoelii (Plasmodium yoelii (17×)): 2.5 mg/kg

N-(3,4-dichloro-phenyl)-N′-(5-methyl-2-oxo-1,3-dioxol-4-yl)methyl-N″-(1-isopropyl-4,5-dioxo-imidazolidin-2-ylidene)guanidine [Compound 3f]
Minimum Protective Dose Against P. yoelii (Plasmodium yoelii (17×)): >40 mg/kg

N-(3,4-dichlorophenyl)-N′-(benzyloxycarbonyl)-N″-(1-isopropyl-4,5-dioxo-imidazolidin-2-ylidene)-guanidine [Compound 3d]
Minimum Protective Dose Against P. yoelii (Plasmodium yoelii (17×)): >160 mg/kg
